The values below come from ChEMBL document CHEMBL1140438, “Ligand recognition by RAR and RXR receptors: binding and selectivity” (J Med Chem, 2005).

In test [1] the target is T1, Retinoic acid receptor gamma (Homo sapiens, UniProt P13631).
T1 sequence (P13631 whole entry): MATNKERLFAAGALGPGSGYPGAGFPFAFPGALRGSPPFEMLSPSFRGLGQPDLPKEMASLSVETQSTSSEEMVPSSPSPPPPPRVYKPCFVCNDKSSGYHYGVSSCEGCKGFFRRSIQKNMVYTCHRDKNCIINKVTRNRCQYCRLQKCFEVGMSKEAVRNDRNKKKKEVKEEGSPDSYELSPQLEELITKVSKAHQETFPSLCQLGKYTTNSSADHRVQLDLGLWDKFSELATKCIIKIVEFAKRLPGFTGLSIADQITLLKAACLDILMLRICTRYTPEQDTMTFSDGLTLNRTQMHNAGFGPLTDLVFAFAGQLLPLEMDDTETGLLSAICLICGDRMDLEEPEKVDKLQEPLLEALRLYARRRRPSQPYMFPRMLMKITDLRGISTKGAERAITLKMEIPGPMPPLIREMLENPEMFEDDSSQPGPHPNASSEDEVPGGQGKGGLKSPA
The test can be described thus: Dissociation constant for Retinoic acid receptor gamma; Not an active agonist. The class given is functional.

Test [2] concerns the target T2, Retinoic acid receptor RXR-alpha (Homo sapiens, UniProt P19793).
T2 sequence (P19793 whole entry): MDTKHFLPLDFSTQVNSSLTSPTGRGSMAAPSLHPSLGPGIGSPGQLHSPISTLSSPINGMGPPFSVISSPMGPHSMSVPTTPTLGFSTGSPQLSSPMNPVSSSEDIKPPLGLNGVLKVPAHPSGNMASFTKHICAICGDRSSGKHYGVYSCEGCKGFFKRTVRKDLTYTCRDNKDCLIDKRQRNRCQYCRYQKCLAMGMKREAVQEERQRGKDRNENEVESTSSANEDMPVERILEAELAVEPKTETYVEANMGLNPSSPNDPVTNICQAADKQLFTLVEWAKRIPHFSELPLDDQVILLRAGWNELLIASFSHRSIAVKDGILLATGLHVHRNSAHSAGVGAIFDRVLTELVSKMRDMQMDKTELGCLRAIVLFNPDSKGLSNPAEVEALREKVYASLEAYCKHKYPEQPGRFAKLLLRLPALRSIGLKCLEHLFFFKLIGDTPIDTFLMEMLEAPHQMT
Nature of the test: Dissociation constant for Retinoid X receptor alpha.

The target of test [3] is T1, Retinoic acid receptor gamma.

Consider `Cc1cc2c(cc1-c1cc(/C=C3\SC(=O)NC3=O)ccc1OC(F)(F)F)C(C(C)C)=CCC2(C)C`, for which, in test [1], the Kd (in general, the concentration at which binding is half-saturated) is given as “Not Active”. `C/C(=C\c1ccc(C(=O)O)cc1)c1cc2c(cc1C)C(C)(C)CCC2(C)C`: the dissociation constant Kd in test [2] amounted to 32 nM; in test [3] it was 645 nM.
